The values below come from article PMC3156789 (Biochemistry, 2011).

In data set [1] the test system is CHK. Description: CHK phosphorylation of Flag-tagged β-synuclein in transfected HEK293T cells. The data set is classed as cell-based. To be noted: HEK293T co-transfected with CHK; pervanadate-treated; Western blot.
The target in a further data set is T1, CHK-His6 (Rattus norvegicus, UniProt P41243).
T1 sequence (P41243 1-467): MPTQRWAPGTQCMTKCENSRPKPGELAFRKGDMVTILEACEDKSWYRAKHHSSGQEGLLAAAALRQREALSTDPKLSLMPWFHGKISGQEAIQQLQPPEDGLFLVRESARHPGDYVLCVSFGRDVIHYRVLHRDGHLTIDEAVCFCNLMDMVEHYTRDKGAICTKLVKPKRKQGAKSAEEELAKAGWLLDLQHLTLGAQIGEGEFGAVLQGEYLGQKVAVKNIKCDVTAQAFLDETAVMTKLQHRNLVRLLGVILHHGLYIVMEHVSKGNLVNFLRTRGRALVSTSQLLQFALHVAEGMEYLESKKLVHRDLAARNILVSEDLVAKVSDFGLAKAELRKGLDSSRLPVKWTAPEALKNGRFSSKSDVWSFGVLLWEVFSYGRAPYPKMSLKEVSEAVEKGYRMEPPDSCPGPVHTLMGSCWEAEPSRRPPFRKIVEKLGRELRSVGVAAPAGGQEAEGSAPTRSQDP
As to the kind of experiment: Kinetic analysis of phosphorylation of peptide substrates by CHK-His6. It is filed as biochemical.

Data set [2] can be described thus: Circular dichroism analysis of secondary structure. The data set is classed as physicochemical. Conditions: aqueous solution; SFig. 6. For orientation: Circular dichroism is the unequal absorption of left and right circularly polarised light.
Data set [3] has as its system CHK. As to the kind of experiment: CHK phosphorylation of peptides derived from α- and β-synucleins. It is filed as biochemical. To be noted: 30 °C; for reduction in CHK phosphorylation rate: vs β-syn(112–134), Fig. 2B, P81 filter assay, [γ-^32P]ATP.
The test system of a further data set is transgenic mice. To be noted: mouse, in vivo; cited from earlier work.
Data set [4] relates to CHK. Description: Phosphorylation of α- and β-synucleins by CHK. Conditions: for phosphate incorporated by CHK: reaction time 120 min, synuclein 0.56 μM, CHK 0.04 μM. The data set is classed as biochemical.
In data set [5] the test system is CHK. The data set is classed as biochemical. To be noted: higher than that of hsp90 (SFig. 4B).
The mark [6] stands for this setting: CHK-His6 0.2 μM, substrate peptides 0–400 μM.
Where [7] appears, read: CHK-His6 0.2 μM, substrate peptides 0–400 μM, Lineweaver-Burk plots.
The mark [8] stands for this setting: vs β-syn(112–134) and SFK-C-terminal peptide.

“Flag-[Y127F]β-synuclein: [Y127F]β-synuclein with the Flag tag attached at the N-terminus”: the “effect of Y127F on CHK-induced phosphorylation in cells” value in the data set on CHK [1] is reported as “reduced the level of CHK-induced phosphorylation”.

Regarding “KKDPEERPTFEYLQSFTATEPQYQPGENL [SFK C-terminal Peptide, reference compound]”, at CHK-His6 (setting [6]), the kcat/KM is on record as 5.1×10^−4 μM^−1S^−1. At CHK-His6 (setting [7]), the kcat is on record as 0.13 ± 0.003 S^−1. In data set [2], the “secondary structure by CD” value was “random coil conformation”.

On to “KKKK-MEPEGESYEDPPQEEYQEYEPEA [β-syn(112–134)]”, for which, at CHK-His6 (setting [6]), the kcat/KM was 6.7×10^−4 μM^−1S^−1. For the same substance, the kcat on CHK-His6 (setting [7]) is on record as 0.17 ± 0.01 S^−1. The “secondary structure by CD” value in data set [2] was “random coil conformation”. Also, the “CHK phosphorylation efficiency relative to α-syn peptide” value in the data set on CHK [3] (higher than α-syn(117–140) peptide, CHK 0.11 μM, peptide 20 μM, time course (Fig. 3B)) was ~ 10 fold.

Regarding “KKK–GESFEAQDEGIYWNVGPEA [[D9A]CHK-optimal peptide]”, the kcat/KM on CHK-His6 (setting [6]) was 111×10^−4 μM^−1S^−1. The kcat at CHK-His6 (setting [7]) came to 1.27 ± 0.06 S^−1. Further, at CHK-His6 (vs CHK-optimal peptide), the “effect of D9A substitution on KM” value was “small increase in KM” and the “effect of D9A substitution on kcat” value was “slight reduction of kcat”.

Take “KKK–GESFEDQDEGIYWNVGPEA [CHK-optimal peptide]”: the kcat/KM on CHK-His6 (setting [6]) is 140×10^−4 μM^−1S^−1. For the same substance, at CHK-His6 (setting [7]), the kcat is given as 1.45 ± 0.05 S^−1. For the same substance, the “kcat” value at CHK-His6 (CHK-optimal peptide) is 1.45 s⁻¹. Moreover, on CHK-His6 (setting [8]), the “kcat relative to β-syn(112–134) and SFK-C-terminal peptide” value is given as “approximately ten-fold higher”; the “phosphorylation efficiency in comparison” value is “phosphorylated with an efficiency higher than those of β-syn(112–134) and SFK-C-terminal peptide”.

As for “[P123H] β-synuclein: β-synuclein mutant, proline to histidine substitution at position 123”, in the data set on transgenic mice, the “phenotype of transgenic mice overexpressing the mutant” value is on record as “progressive neurodegeneration”.

Turning to “[Y119F, Y130F]β-syn(112–134): contains Y127 as the only tyrosine”, the “reduction in CHK phosphorylation rate” value in the data set with CHK [3] worked out at 30%.

As for “[Y127F] β-syn(112–134): Y127 is replaced by phenylalanine”, the “reduction in CHK phosphorylation rate” value with CHK [3] is reported as 84%.

For the substance α-synuclein, the “phosphate incorporated by CHK” value with CHK [4] stood at 0.024 pmol. Besides, the “CHK substrate quality in comparison” value with CHK [4] (α-synuclein vs β-synuclein) is “much poorer substrate of CHK compared to β-synuclein”.

In the case of “β-synuclein: recombinant β-synuclein (GST-β-synuclein in Fig. 5); potential CHK substrate in rat brain cytosol”, the “rate of CHK phosphorylation relative to hsp90” value in the data set on CHK [5] is ~ 23 fold. In addition, in the data set with CHK [4], the “phosphate incorporated by CHK” value is listed as ~ 0.9 pmol.
